Laboratory results as given in ChEMBL document CHEMBL5532662, “Exploiting the Carboxylate-Binding Pocket of β-Lactamase Enzymes Using a Focused DNA-Encoded Chemical Library” (J Med Chem, 2024).

How the values were obtained:
[1] = Binding affinity to his-tagged OXA-48 (unknown origin) expressed in Escherichia coli BL21 (DE3) cells assessed as inhibition constant using nitrocefin as substrate by Morrison equation based analysis; set-up: species or system Bacteria
Escherichia coli [2] = experiment: Synergistic antimicrobial activity against Escherichia coli expressing […] assessed as imipenem MIC at 128 ug/ml incubated for 18 hrs by microdilution method (reference value: 8 ug/ml); assay type: functional; conditions: dose 128 µg/ml
Escherichia coli [3] = experiment: Synergistic antimicrobial activity against Escherichia coli expressing […] assessed as imipenem MIC at 32 ug/ml incubated for 18 hrs by microdilution method (reference value: 8 ug/ml); assay type: functional; conditions: dose 32 µg/ml
[4] = Drug accumulation in Escherichia coli assessed per 10^12 CFU incubated for 10 mins under shaking condition by LC-MS/MS analysis; assay type: ADME
Escherichia coli [5] = experiment: Synergistic antimicrobial activity against Escherichia coli expressing […] assessed as imipenem MIC at 64 ug/ml incubated for 18 hrs by microdilution method (reference value: 8 ug/ml); assay type: functional; conditions: dose 64 µg/ml
Escherichia coli [6] = experiment: Synergistic antimicrobial activity against Escherichia coli expressing […] assessed as imipenem MIC at 16 ug/ml incubated for 18 hrs by microdilution method (reference value: 8 ug/ml); assay type: functional; conditions: dose 16 µg/ml
[7] = target: T1, Metallo-beta-lactamase type 2 (Bacteria, UniProt C7C422); experiment: biochemical
T1 sequence (C7C422 whole entry): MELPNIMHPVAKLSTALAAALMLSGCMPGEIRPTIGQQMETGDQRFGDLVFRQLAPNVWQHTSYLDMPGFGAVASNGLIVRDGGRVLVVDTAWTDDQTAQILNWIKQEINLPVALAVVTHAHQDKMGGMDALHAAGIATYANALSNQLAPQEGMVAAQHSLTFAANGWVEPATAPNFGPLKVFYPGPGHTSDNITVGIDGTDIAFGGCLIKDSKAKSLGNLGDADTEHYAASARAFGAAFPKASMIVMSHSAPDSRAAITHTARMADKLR

Escherichia coli [8] = experiment: Synergistic antimicrobial activity against Escherichia coli expressing […] assessed as imipenem MIC at 8 ug/ml incubated for 18 hrs by microdilution method (reference value: 8 ug/ml); assay type: functional; conditions: dose 8 µg/ml
[9] = target: T1, Metallo-beta-lactamase type 2; experiment: biochemical; remark: listed apart in the source

CN(C)C(=O)C1CCN(c2ccc(CNCc3ccccc3-c3cccc(C(=O)O)c3)cc2C#N)CC1
Ki [1]: 8 µM

NCc1cccc(NCc2cccc(-c3ccc(C(=O)O)c(O)c3)n2)c1
MIC (Escherichia coli [2]): 2 µg/mL
MIC (Escherichia coli [3]): 4 µg/mL
Drug uptake [4]: Active
MIC (Escherichia coli [5]): 4 µg/mL
MIC (Escherichia coli [6]): 4 µg/mL

Cc1cccc(NCc2cccc(-c3ccc(C(=O)O)c(O)c3)c2)c1
Ki [7]: > 100 µM

NCc1cccc(NCc2ccnc(-c3ccc(C(=O)O)c(O)c3)c2)c1
MIC (Escherichia coli [2]): 4 µg/mL
MIC (Escherichia coli [3]): 8 µg/mL
MIC (Escherichia coli [5]): 4 µg/mL
MIC (Escherichia coli [6]): 8 µg/mL

NCc1cc(O)cc(NCc2cccc(-c3ccc(C(=O)O)c(O)c3)c2)c1
MIC (Escherichia coli [2]): 4 µg/mL
MIC (Escherichia coli [3]): 4 µg/mL
MIC (Escherichia coli [5]): 4 µg/mL
MIC (Escherichia coli [6]): 4 µg/mL

NCc1cccc(NCc2ccc(-c3ccc(C(=O)O)c(O)c3)o2)c1
MIC (Escherichia coli [2]): 4 µg/mL
MIC (Escherichia coli [3]): 4 µg/mL
MIC (Escherichia coli [5]): 4 µg/mL
MIC (Escherichia coli [6]): 4 µg/mL

NCc1cccc(NCc2cccc(-c3ccc(C(=O)O)c(O)c3)c2)c1
MIC (Escherichia coli [8]): 4 µg/mL
MIC (Escherichia coli [3]): 4 µg/mL
Ki [7]: 0.6 µM
Drug uptake [4]: Active
MIC (Escherichia coli [5]): 4 µg/mL
MIC (Escherichia coli [6]): 4 µg/mL

NCc1cccc(N2Cc3ccc(-c4ccc(C(=O)O)c(O)c4)cc3C2)c1
MIC (Escherichia coli [2]): 8 µg/mL
MIC (Escherichia coli [3]): 8 µg/mL
Ki [7]: 50 µM
MIC (Escherichia coli [5]): 8 µg/mL
MIC (Escherichia coli [6]): 8 µg/mL

NCc1cccc(NCc2cc(-c3ccc(C(=O)O)c(O)c3)ccn2)c1
MIC (Escherichia coli [2]): 4 µg/mL
MIC (Escherichia coli [3]): 8 µg/mL
MIC (Escherichia coli [5]): 4 µg/mL
MIC (Escherichia coli [6]): 8 µg/mL

CC(=O)NCc1cccc(NCc2cccc(-c3ccc(C(=O)O)c(O)c3)c2)c1
Ki [7]: > 100 µM

Cc1cc(CNc2cccc(CN)c2)cc(-c2ccc(C(=O)O)c(O)c2)c1
MIC (Escherichia coli [8]): 4 µg/mL
MIC (Escherichia coli [3]): 4 µg/mL
Ki [7]: 0.5 µM
MIC (Escherichia coli [6]): 4 µg/mL

CNCc1cccc(NCc2ccc(-c3ccc(C(=O)O)cc3)o2)c1
Ki [7]: 9 µM

CNC(=O)CCc1ccc(CNCc2cccc(NCc3ccc(-c4ccc(C(=O)O)c(O)c4)o3)c2)cc1
MIC (Escherichia coli [2]): 8 µg/mL
MIC (Escherichia coli [3]): 8 µg/mL
MIC (Escherichia coli [5]): 8 µg/mL
MIC (Escherichia coli [6]): 8 µg/mL

NCc1cccc(NCc2cc(C(=O)O)cc(-c3ccc(C(=O)O)c(O)c3)c2)c1
Ki [7]: 140 µM

NCc1cccc(NCc2ccc(-c3cccc(C(=O)O)c3O)o2)c1
MIC (Escherichia coli [2]): 4 µg/mL
MIC (Escherichia coli [3]): 4 µg/mL
MIC (Escherichia coli [5]): 4 µg/mL
MIC (Escherichia coli [6]): 8 µg/mL

CNCc1cccc(NCc2ccc(-c3ccc(C(=O)O)c(O)c3)o2)c1
MIC (Escherichia coli [2]): 4 µg/mL
MIC (Escherichia coli [3]): 4 µg/mL
Drug uptake [4]: Not Active
MIC (Escherichia coli [5]): 4 µg/mL
MIC (Escherichia coli [6]): 4 µg/mL

COc1cc(-c2cc(O)cc(C(=O)O)c2)ccc1C(=O)O
Ki [1]: 0.6 µM

NCc1cccc(NCc2cncc(-c3ccc(C(=O)O)c(O)c3)c2)c1
MIC (Escherichia coli [2]): 4 µg/mL
MIC (Escherichia coli [3]): 8 µg/mL
MIC (Escherichia coli [5]): 8 µg/mL
MIC (Escherichia coli [6]): 8 µg/mL

CNCc1cccc(NCc2ccc(-c3cccc(C(=O)O)c3O)o2)c1
MIC (Escherichia coli [2]): 4 µg/mL
MIC (Escherichia coli [3]): 8 µg/mL
MIC (Escherichia coli [5]): 8 µg/mL
MIC (Escherichia coli [6]): 8 µg/mL

NCc1cccc(NCc2ccc(-c3ccc(C(=O)O)c(O)c3)s2)c1
MIC (Escherichia coli [2]): 4 µg/mL
MIC (Escherichia coli [3]): 4 µg/mL
Ki [7]: 1.5 µM
MIC (Escherichia coli [5]): 4 µg/mL
MIC (Escherichia coli [6]): 4 µg/mL

NCc1cccc(NC(=O)c2cccc(-c3ccc(C(=O)O)c(O)c3)c2)c1
MIC (Escherichia coli [2]): 8 µg/mL
MIC (Escherichia coli [3]): 8 µg/mL
Ki [7]: 30 µM
MIC (Escherichia coli [5]): 8 µg/mL
MIC (Escherichia coli [6]): 8 µg/mL

Nc1cccc(CCCNCc2ccccc2-c2cccc(C(=O)O)c2)c1
Ki [1]: 130 µM

NCc1cccc(NCc2cc(O)cc(-c3ccc(C(=O)O)c(O)c3)c2)c1
MIC (Escherichia coli [2]): 4 µg/mL
MIC (Escherichia coli [3]): 4 µg/mL
MIC (Escherichia coli [5]): 4 µg/mL
MIC (Escherichia coli [6]): 4 µg/mL

CNCc1cccc(NCc2cccc(-c3ccc(C(=O)O)c(O)c3)c2)c1
MIC (Escherichia coli [2]): 4 µg/mL
MIC (Escherichia coli [3]): 4 µg/mL
MIC (Escherichia coli [5]): 4 µg/mL
MIC (Escherichia coli [6]): 4 µg/mL

CNCc1ccc(-c2ccc(C(=O)O)c(O)c2)o1
Ki [9]: 500 µM
